Values joined by “and” are separate entries in the source; they are usually repeats but may differ in a detail not shown here. Equal entries are not always repeated.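 Five compound concentrations were applied to cells in 96-well plates for 48 hours; endpoints were derived by simple linear interpolation of the resulting dose-response curve. The concentration for 50% growth inhibition is given as GI50. TGI: concentration producing complete growth inhibition.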
Tests used:
Assay in all cases: DTP human tumour cell line panel, 48 h
NCI/ADR-RES ovarian = tested on: NCI/ADR-RES ovarian
SNB-19 CNS = tested on: SNB-19 CNS
SF-539 CNS = tested on: SF-539 CNS
NCI-H460 lung = tested on: NCI-H460 lung
LOX IMVI melanoma = tested on: LOX IMVI melanoma
MALME-3M melanoma = tested on: MALME-3M melanoma
KM12 colon = tested on: KM12 colon
786-0 renal = tested on: 786-0 renal
HT29 colon = tested on: HT29 colon
SK-MEL-28 melanoma = tested on: SK-MEL-28 melanoma

Structure (SMILES) | GI50 (NCI/ADR-RES ovarian) | TGI (NCI/ADR-RES ovarian) | GI50 (SNB-19 CNS) | TGI (SNB-19 CNS) | GI50 (SF-539 CNS) | TGI (SF-539 CNS) | GI50 (NCI-H460 lung) | TGI (NCI-H460 lung) | GI50 (LOX IMVI melanoma) | TGI (LOX IMVI melanoma) | GI50 (MALME-3M melanoma) | TGI (MALME-3M melanoma) | GI50 (KM12 colon) | TGI (KM12 colon) | GI50 (786-0 renal) | TGI (786-0 renal) | GI50 (HT29 colon) | TGI (HT29 colon) | GI50 (SK-MEL-28 melanoma) | TGI (SK-MEL-28 melanoma)
COc1cc2c3c(n(CCCNC(C)(C)CO)c(=O)c2cc1OC)-c1cc2c(cc1C3=O)OCO2 | 3.28 µM | 28.3 µM | 1.83 µM | > 61.2 µM | 0.356 µM | 31.3 µM | 1.15 µM | > 69.2 µM | 0.255 µM | 2.06 µM | 14.8 µM | 51.1 µM | 2.19 µM | > 100 µM | 0.0829 µM | 0.66 µM | 1.08 µM | > 100 µM | 25.4 µM | > 65.6 µM
Nc1nc(N)c2cc(Sc3ccc(Cl)cc3)ccc2n1 | 0.793 µM | 16.1 µM | 3.71 µM | 20.8 µM | 3.1 µM | 22.3 µM | 0.314 µM | 11.9 µM | 0.35 µM | 4.07 µM | 1.25 µM | 3.27 µM | 1.34 µM | 4.32 µM | 0.582 µM | 2.04 µM | 0.516 µM | 2.4 µM | 2.68 µM | 8.05 µM
CC[C@@]1(O)C(=O)OCc2c1cc1n(c2=O)Cc2cc3c(OC)cccc3nc2-1 |  | > 100 µM | 0.00642 µM | > 31.9 µM | 0.00654 µM | 0.224 µM | 0.000801 µM and < 0.215 µM | 1.27 µM | 0.00444 µM | 1.14 µM |  | 1.89 µM |  | 5.86 µM | 0.00394 µM | 1.13 µM |  | > 43.7 µM | 1.72 µM | > 28.1 µM
CC[n+]1c(/C=C/c2ccc(N3CCCC3)cc2)cccc1/C=C/c1ccc(N2CCCC2)cc1 | 0.466 µM | 1.95 µM | 0.31 µM | 1.55 µM | 0.274 µM | 1.44 µM | 0.293 µM | 1.15 µM | 0.22 µM and 0.145 µM | 1.62 µM and 1.45 µM | 0.293 µM | 2.13 µM | 0.116 µM | 0.238 µM | 0.247 µM | 1.2 µM | 0.115 µM | 0.375 µM | 0.194 µM and 0.169 µM | 0.374 µM and 0.321 µM
NS(=O)(=O)c1ccc(N=Nc2c(O)[nH]c3cccc(CCc4ccncc4)c23)cc1 | > 25 µM | > 25 µM | > 25 µM | > 25 µM | > 25 µM | > 25 µM | > 25 µM | > 25 µM | > 25 µM | > 25 µM | > 25 µM | > 25 µM | > 25 µM | > 25 µM | > 25 µM | > 25 µM | > 25 µM | > 25 µM | > 25 µM | > 25 µM
COC(=O)Nc1nc2ccc(C(=O)C3CC3)cc2[nH]1 | 0.329 µM | 9.82 µM | 0.88 µM | > 56.5 µM | 0.311 µM | 3.06 µM | 0.363 µM | 20.7 µM | 0.72 µM | > 100 µM | 0.392 µM | > 100 µM | 0.283 µM | 1.68 µM | 0.581 µM | 30.5 µM | 0.295 µM | 6.31 µM | 0.506 µM | > 63.7 µM
COc1cc(C)cc(C(=O)OCc2ccccc2)c1C1=C(Cl)C(=O)C(Cl)=CC1=O |  | > 10 µM |  | > 10 µM |  | > 10 µM |  | > 10 µM |  | > 10 µM |  | > 10 µM |  | > 10 µM |  | > 10 µM |  | > 10 µM |  | > 10 µM
COc1ccc2c(c1)OC(N)=C(C#N)C2c1ccc(F)c(F)c1 (stereo unspecified) | 0.351 µM | 10.7 µM | 0.58 µM | > 100 µM | 0.271 µM | 1.05 µM | 0.41 µM | 41.6 µM | 0.589 µM | > 100 µM | 0.619 µM | 77.4 µM | 0.349 µM | 26 µM | 0.595 µM | > 96.6 µM | 0.318 µM | 4.77 µM | 3.43 µM | > 100 µM
ClCCN(CCCl)c1ccc(OCc2ccccc2)cc1 | 5.44 µM | > 100 µM | 6.15 µM | > 100 µM | 2.03 µM | 7.44 µM | 0.603 µM | 19.8 µM | 3.13 µM | 17.4 µM | 10.2 µM | 34.4 µM | 14.2 µM | 36.7 µM | 2.97 µM | 22.1 µM | 13.4 µM | 49.8 µM | 13.8 µM | 40.9 µM
Nc1n[nH]c2ccc([C@H]3[C@@H]4C5CCC(C5)[C@@H]4c4c(ccc5[nH]ncc45)N3S(=O)(=O)C3CC3)cc12 (stereo partly specified) | 0.231 µM | > 50 µM | 0.21 µM | > 38.3 µM | 0.135 µM | 0.484 µM | 0.181 µM | 8.38 µM | 0.303 µM | 6.45 µM | 0.326 µM | 40.9 µM | 0.199 µM | 6.32 µM | 0.366 µM | 22.3 µM | 0.171 µM | 8.52 µM | 2 µM | 26 µM
CSc1nc(SC)c2cnn(-c3ccnc4cc(Cl)ccc34)c2n1 | 51.2 µM | > 100 µM | > 100 µM | > 100 µM | 29.1 µM | > 62.4 µM | 9.36 µM | > 45.6 µM | > 59 µM | > 100 µM | 32.9 µM | > 100 µM | > 100 µM | > 100 µM | 38.6 µM | > 100 µM | > 100 µM | > 100 µM | > 100 µM | > 100 µM
Cc1cccc2c1NC(=O)[C@@H](NC(=O)[C@H](CCC(F)(F)F)[C@H](CCC(F)(F)F)C(N)=O)N=C2c1cccc(F)c1 | 26.3 µM | > 100 µM | 17 µM | 41 µM | 18.4 µM | 41.8 µM | 31.3 µM | > 100 µM | 64.8 µM | > 100 µM | 50 µM | > 100 µM | > 100 µM | > 100 µM | 20.6 µM | 56.3 µM | > 100 µM | > 100 µM | > 100 µM | > 100 µM
CCCC(c1cc(C(C)(C)C)c(O)cc1C)c1cc(C(C)(C)C)c(O)cc1C |  | 12.1 µM |  | 16.9 µM |  | 4.7 µM |  | 3.92 µM |  | 3.43 µM |  | 9.78 µM |  | 11.1 µM |  | 5.41 µM |  | 17.5 µM |  | 12.4 µM

Reference: PubChem BioAssay (NCI)
